One data set addresses T1, internalized S-SMase (Homo sapiens, UniProt P17405).
T1 construct: FLAG; purchased AMGEN, Boulder, Colo
T1 sequence (P17405 47-631): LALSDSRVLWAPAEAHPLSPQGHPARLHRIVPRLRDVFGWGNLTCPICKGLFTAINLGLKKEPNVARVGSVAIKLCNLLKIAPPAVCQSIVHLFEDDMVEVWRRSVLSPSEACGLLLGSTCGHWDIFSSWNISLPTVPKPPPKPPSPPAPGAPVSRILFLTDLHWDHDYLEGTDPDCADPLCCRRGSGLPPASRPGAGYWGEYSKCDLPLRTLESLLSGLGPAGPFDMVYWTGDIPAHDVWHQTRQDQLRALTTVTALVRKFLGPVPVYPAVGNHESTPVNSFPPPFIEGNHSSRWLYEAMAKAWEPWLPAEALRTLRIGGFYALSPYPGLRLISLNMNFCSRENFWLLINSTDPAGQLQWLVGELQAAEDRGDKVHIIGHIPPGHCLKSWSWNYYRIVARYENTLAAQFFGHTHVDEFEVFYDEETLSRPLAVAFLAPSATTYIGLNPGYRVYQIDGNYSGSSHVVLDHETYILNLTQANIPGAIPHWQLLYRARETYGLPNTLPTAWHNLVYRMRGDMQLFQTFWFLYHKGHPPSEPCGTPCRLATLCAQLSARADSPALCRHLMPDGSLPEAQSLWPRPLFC
Description: SMase activity in homogenates of type A Niemann-Pick fibroblasts after internalization of FLAG-tagged S-SMase. Format: biochemical. As to conditions: 0.1 mM ZnCl2, sonicated cell homogenates. The method, then:
FIG. 17. Zn^2+-dependency of S-SMase after internalization by type A Niemann-Pick cells. Skin fibroblasts from a patient with type A Niemann-Pick disease (NP-A Cells) were grown to 90% confluency in medium supplemented with 10% HI-FBS. The cells were then washed three times with PBS and incubated in serum-free media containing 0.2% BSA and 850 ng immunoaffinity-isolated FLAG-tagged S-SMase (Purified S-SMase)/ml at 37° C. for 16 h. The cell homogenate and incubation medium were then prepared as described in “Experimental Procedures”, and aliquots were assayed for SMase activity in the presence of either 5 mM EDTA (hatched bars) or 0.1 mM ZnCl2 (solid bars) for 2 h at 37° C. at pH 5.0. […]
SMase Assay—As previously described (Schissel et al., 1996), the standard 200-μl assay mixture consisted of up to 40 μl of sample (conditioned media or homogenized cells; see above) and a volume of assay buffer (0.1 M sodium acetate, pH 5.0) to bring the volume to 160 μl. […] The ceramide spots were scraped and directly counted to quantify [^3H]ceramide. Typically, the assay reactions contained approximately 20 μg of cellular homogenate protein and a volume of conditioned media derived from a quantity of cells equivalent to approximately 50 μg of cellular protein. […]

In another data set the test system is HUVECs. In words: LDH release from HUVECs. Type of data set: cell-based, human. The note with it: IL-1β 5 ng/ml, 18 h. The method, then:
HUVECs were incubated for 18 h in DMEM, 0.2% BSA alone (Con) or containing human recombinant interleukin-1β (5 ng/ml) (IL1β). Conditioned media from these cells were then assayed for SMase activity (FIG. 25A) and LDH activity (FIG. 25B).
LDH Assay—LDH activity was assayed in medium and cells as reported previously (42) using a kit purchased from Sigma (catalogue #500); the assay measures the unreacted pyruvic acid using a colorometric assay.
A general note: Release of lactate dehydrogenase indicates damage to the cell membrane.

Consider 2 compounds from patent US6613322B2, “Method for treating a subject suffering from conditions associated with an extracellular zinc sphingomyelinase” (The Trustees of Columbia University in the City of New York, priority 1997, dated 2003).

Consider `[Cl-].[Cl-].[Zn+2]` [Zn^2+, ZnCl2], for which, at internalized S-SMase, the “effect of added Zn2+ on cellular enzymatic activity” value is on record as “failed to increase”.
Take IL-1β: human recombinant interleukin-1β: the “increase in LDH release” value with HUVECs amounted to 60%.
